Results on 20 compounds are retold here after US20240025892A1 (priority 2020, published 2024).

Molecules are shown by their SMILES.

The target in one data set is SIK3 (Homo sapiens (Human), UniProt Q9Y2K2). In words: In vitro SIK3 kinase assay. Format: biochemical. Here is the method: (§1) Assays were performed in base reaction buffer (20 mM Hepes (pH 7.5), 10 mM MgCl2, 1 mM EGTA, 0.02% Brij35, 0.02 mg/mL BSA, 0.1 mM Na3VO4, 2 mM DTT, 1% DMSO). Compounds were dissolved in 100% DMSO in a 10 mM stock. […] Assays were performed for 20 minutes at room temperature, after which time ^33P-ATP (10 μCi/μL) was added followed by incubation for another 120 minutes at room temperature. Thereafter, radioactivity incorporated into the pEY peptide substrate was detected by filter-binding method. Kinase activity data were expressed as the percent remaining kinase activity in test samples compared to DMSO reactions. IC50 values and curve fits were obtained using Prism (GraphPad Software).

A further data set deals with RANKL. In words: RANKL gene expression in Ocy454 cells (RT-qPCR).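 Note: Ocy454 cells moved to 37 °C for osteocytic differentiation before compound exposure, RANKL mRNA by SYBR Green qRT-PCR, 2^−ΔΔCT with β-actin normalization, duplicate wells.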 The following applies: maximal RANKL fold induction versus DMSO, four hours. (In general: Real-time PCR tracks product formation cycle by cycle.)
The test system of the next data set is CRTC2 (TORC2). Nature of the data set: CRTC2 nuclear translocation (PathHunter U2OS). The following applies: maximal CRTC2 nuclear translocation, U2OS cells, 90 minutes, maximum dose 10 μM. It counts as cell-based. The text has this: PathHunter® Nuclear Translocation cell lines are engineered to co-express two fusion proteins: a) Enzyme Donor (ED) tagged target protein; b) an Enzyme Acceptor (EA) tagged TAZ domain, derived from the CBP/P300 transcription factor, that localizes to the nucleus. Activation of the signaling pathway induces translocation of the ED-tagged target protein into the nucleus, which will force complementation of the two enzyme fragments, and result in the formation of a functional enzyme that will hydrolyze substrate and generate a chemiluminescent signal. U2OS CRTC2 (TORC2) translocation assays were performed in 384 well plates at Eurofins DiscoverX (Freemont, CA). Cells were treated with compounds for 90 minutes in experimental duplicates in 5 point dose response format (4-fold serial dilutions with a maximum dose of 10 μM) followed by […] readout on an Envision 2104 Multilabel Reader. In all experiments, forskolin was used as a positive control and maximal CRTC2 nuclear translocation induced by each compound is expressed as a percentage of the signal stimulated by forskolin.
Representative data are shown in FIG. 4A and presented as percent of the positive control (forskolin) signal.

A further data set has as its target SIK1 (Homo sapiens (Human), UniProt P57059). In words: In vitro SIK1 kinase assay. Format: biochemical. The method, then: as §1
In the next data set the target is Recombinant SIK2 (Homo sapiens (Human), UniProt Q9H0K1). Nature of the data set: biochemical. The note with it: recombinant SIK2 2.5 nM, 1 μM ATP; read-out: SIK2 IC50. The method, then:
as §1

Recombinant SIK2, sequence (Q9H0K1 whole entry): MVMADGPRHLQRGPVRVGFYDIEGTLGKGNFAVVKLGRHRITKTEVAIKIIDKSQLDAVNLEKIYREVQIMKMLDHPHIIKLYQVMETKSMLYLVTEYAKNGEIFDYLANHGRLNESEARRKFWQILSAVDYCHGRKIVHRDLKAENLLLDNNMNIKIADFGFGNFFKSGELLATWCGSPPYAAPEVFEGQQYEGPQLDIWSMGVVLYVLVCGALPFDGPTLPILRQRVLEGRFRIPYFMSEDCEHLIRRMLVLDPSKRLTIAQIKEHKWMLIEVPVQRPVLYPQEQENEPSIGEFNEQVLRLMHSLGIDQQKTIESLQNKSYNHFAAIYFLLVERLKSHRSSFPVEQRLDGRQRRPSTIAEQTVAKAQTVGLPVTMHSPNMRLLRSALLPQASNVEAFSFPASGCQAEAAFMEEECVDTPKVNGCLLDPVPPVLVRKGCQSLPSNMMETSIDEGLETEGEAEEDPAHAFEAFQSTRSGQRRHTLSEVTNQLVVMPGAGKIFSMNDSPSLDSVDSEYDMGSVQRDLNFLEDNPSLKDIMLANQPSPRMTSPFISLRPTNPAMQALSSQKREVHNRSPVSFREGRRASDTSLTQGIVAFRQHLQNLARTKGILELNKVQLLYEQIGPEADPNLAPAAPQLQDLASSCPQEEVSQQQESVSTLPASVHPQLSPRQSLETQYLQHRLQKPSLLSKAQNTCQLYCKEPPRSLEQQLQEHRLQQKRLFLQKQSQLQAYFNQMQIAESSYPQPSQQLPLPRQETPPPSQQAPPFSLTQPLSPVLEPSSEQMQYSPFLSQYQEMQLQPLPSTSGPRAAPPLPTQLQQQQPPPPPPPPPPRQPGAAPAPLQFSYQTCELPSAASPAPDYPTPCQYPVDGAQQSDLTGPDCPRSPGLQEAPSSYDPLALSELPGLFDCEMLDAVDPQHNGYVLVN
SIK3, sequence (Q9Y2K2 whole entry): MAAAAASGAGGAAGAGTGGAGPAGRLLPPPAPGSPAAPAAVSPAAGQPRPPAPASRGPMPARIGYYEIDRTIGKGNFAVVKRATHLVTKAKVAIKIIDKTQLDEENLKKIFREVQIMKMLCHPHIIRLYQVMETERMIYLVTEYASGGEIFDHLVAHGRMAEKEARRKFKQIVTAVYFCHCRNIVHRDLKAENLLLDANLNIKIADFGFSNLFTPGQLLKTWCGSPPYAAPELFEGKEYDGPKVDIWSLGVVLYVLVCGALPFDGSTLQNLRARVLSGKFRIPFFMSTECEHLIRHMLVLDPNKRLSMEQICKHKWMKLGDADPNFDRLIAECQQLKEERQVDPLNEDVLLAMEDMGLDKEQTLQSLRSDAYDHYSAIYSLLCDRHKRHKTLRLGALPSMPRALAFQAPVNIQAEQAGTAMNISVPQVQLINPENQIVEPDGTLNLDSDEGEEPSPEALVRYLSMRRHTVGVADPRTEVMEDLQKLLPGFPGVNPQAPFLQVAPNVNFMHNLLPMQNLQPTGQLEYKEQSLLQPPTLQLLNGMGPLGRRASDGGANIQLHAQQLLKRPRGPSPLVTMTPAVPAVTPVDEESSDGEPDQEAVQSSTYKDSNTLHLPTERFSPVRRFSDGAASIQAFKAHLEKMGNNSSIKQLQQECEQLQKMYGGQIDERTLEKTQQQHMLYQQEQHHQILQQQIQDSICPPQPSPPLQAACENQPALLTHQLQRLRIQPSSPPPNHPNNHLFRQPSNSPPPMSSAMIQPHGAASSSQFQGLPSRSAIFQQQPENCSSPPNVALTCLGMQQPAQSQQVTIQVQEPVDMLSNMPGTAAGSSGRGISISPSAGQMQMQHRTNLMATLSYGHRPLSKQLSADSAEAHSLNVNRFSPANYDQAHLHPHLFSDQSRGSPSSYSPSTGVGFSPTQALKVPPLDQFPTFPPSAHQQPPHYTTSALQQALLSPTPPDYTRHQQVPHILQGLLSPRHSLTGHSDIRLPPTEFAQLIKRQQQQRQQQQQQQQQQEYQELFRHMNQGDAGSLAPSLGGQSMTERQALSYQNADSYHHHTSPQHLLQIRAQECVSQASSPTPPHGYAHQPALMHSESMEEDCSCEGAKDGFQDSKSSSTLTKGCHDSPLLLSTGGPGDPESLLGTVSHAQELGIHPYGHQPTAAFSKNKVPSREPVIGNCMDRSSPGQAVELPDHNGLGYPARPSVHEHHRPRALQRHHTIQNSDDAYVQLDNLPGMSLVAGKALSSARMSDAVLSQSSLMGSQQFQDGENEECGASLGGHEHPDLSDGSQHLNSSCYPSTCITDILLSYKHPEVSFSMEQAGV
SIK1, sequence (P57059 whole entry): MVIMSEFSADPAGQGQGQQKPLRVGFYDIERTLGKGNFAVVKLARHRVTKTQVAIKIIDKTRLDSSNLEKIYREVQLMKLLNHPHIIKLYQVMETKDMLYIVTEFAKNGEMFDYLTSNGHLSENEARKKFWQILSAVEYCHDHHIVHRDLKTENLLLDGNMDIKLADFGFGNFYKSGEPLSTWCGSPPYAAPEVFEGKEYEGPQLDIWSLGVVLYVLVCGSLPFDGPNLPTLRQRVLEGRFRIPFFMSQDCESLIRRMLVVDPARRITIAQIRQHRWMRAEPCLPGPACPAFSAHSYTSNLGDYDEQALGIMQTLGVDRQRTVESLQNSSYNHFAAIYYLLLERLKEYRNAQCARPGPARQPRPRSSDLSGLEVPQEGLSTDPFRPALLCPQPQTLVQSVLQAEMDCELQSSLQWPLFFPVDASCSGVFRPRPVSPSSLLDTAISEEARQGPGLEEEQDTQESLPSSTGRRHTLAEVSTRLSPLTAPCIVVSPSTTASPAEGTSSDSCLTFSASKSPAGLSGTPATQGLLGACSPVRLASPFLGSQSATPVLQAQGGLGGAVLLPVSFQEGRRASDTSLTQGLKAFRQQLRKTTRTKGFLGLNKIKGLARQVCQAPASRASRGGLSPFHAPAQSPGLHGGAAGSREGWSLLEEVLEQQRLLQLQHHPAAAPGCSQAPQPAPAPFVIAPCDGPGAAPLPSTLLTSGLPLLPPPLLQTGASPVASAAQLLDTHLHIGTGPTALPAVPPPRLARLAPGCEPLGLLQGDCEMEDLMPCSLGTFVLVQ

Broadly, the IC50 is the midpoint of a concentration-inhibition curve. `CC1(COc2ccc3c(c2)ncn3-c2ccc3cccc(N4CC5(CC(N)C5)C4)c3n2)COC1` [Example 2, 2-[2-[5-[(3-Methyloxetan-3-yl)methoxy]benzimidazol-1-yl]-8-quinolyl]-2-azaspiro[3.3]heptan-6-amine]: the IC50 on SIK3 was 38.7 nM; at SIK1, 625 nM; on Recombinant SIK2 it was 42.1 nM. In addition, in the data set with RANKL, the “RANKL Fold Induction” value amounted to 1.43 fold. Moreover, in the data set with CRTC2 (TORC2), the “CRTC2 Efficacy (% of forskolin)” value was 162 % of forskolin.
On the same counts, the results for `CC1(COc2ccc3c(c2)ncn3-c2ccc3cccc(N4CCCC4CN)c3n2)COC1` (centres unmarked) [Example 8, (1-(2-(5-((3-methyloxetan-3-yl)methoxy)-1H-benzo[d]imidazol-1-yl)quinolin-8-yl)pyrrolidin-2-yl)methanamine] are 30.8 nM, 50.1 nM, 11.6 nM, 17.47 fold and 64.4 % of forskolin.
As to `CN1CCOCC12CCN(c1cccc3ccc(-n4cnc5cc(OCC6(C)COC6)ccc54)nc13)CC2` [Example 10, 1-Methyl-9-[2-[5-[(3-methyloxetan-3-yl)methoxy]benzimidazol-1-yl]-8-quinolyl]-4-oxa-1,9-diazaspiro[5.5]undecane], the half-inhibitory concentration (IC50) is 3.71 nM against SIK3, 37.8 nM on SIK1 and 2.11 nM on Recombinant SIK2. Further, the “RANKL Fold Induction” value in the data set on RANKL worked out at 58.64 fold. In the data set on CRTC2 (TORC2), the “CRTC2 Efficacy (% of forskolin)” value was 75.8 % of forskolin.
On the same counts, the results for `NC1CCN(c2cccc3ncc(-n4cnc5cc(OCC6CS(=O)(=O)C6)ccc54)nc23)CC1` [Example 14, 3-(((1-(8-(4-Aminopiperidin-1-yl)quinoxalin-2-yl)-1H-benzo[d]imidazol-5-yl)oxy)methyl)thietane 1,1-dioxide] are 6.08 nM, 109 nM, 16.1 nM, 1.26 fold and 94.2 % of forskolin.
For `CC1(COc2ccc3c(c2)ncn3-c2ccc3cccc(C4CCNC4)c3n2)COC1` (centres unmarked) [Example 16, 2-(5-((3-Methyloxetan-3-yl)methoxy)-1H-benzo[d]imidazol-1-yl)-8-(pyrrolidin-3-yl)quinoline], the 50% inhibitory concentration (IC50) against SIK3 is 4.43 nM; at SIK1, 16.6 nM; on Recombinant SIK2 it was 3.39 nM. Moreover, the “RANKL Fold Induction” value with RANKL amounted to 27.76 fold.
The matching figures for `CN1CCC(c2cccc3ccc(-n4cnc5cc(OCC6(C)COC6)ccc54)nc23)C1` (centres unmarked) [Example 17, 2-(5-((3-Methyloxetan-3-yl)methoxy)-1H-benzo[d]imidazol-1-yl)-8-(1-methylpyrrolidin-3-yl)quinoline]: 15.4 nM, 53.3 nM, 1.04 nM and 12.73 fold.
As for `Cc1ccc(CNC(=O)c2ccn3c(-c4ccc(C#N)cc4)cnc3c2)cn1` [Example 19, 3-(4-cyanophenyl)-N-[(6-methyl-3-pyridyl)methyl]imidazo[1,2-a]pyridine-7-carboxamide], the “RANKL Fold Induction” value in the data set on RANKL worked out at 1.04 fold. The “CRTC2 Efficacy (% of forskolin)” value with CRTC2 (TORC2) is reported as 27 % of forskolin.
As for `Cn1c(CNC(=O)c2ccn3c(-c4ccc(C#N)cc4)cnc3c2)nc2ccccc21` [Example 23, 3-(4-cyanophenyl)-N-((1-methyl-1H-benzo[d]imidazol-2-yl)methyl)imidazo[1,2-a]pyridine-7-carboxamide], the IC50 stood at 861 nM against SIK3 and 14.3 nM at Recombinant SIK2. The “CRTC2 Efficacy (% of forskolin)” value in the data set with CRTC2 (TORC2) is on record as 19.8 % of forskolin.
For `N#Cc1ccc(-c2cnc3cc(C(=O)NCc4nc5ccccc5o4)ccn23)cc1` [Example 26, N-(benzo[d]oxazol-2-ylmethyl)-3-(4-cyanophenyl)imidazo[1,2-a]pyridine-7-carboxamide], the “RANKL Fold Induction” value in the data set with RANKL is on record as 0.55 fold. Also, the “CRTC2 Efficacy (% of forskolin)” value in the data set with CRTC2 (TORC2) is reported as 1.3 % of forskolin. Besides, the IC50 on Recombinant SIK2 is 83 nM.
Regarding `N#Cc1ccc(-c2cnc3cc(C(=O)N4CCn5c(nc6ccccc65)C4)ccn23)cc1` [Example 28, 4-(7-(1,2,3,4-tetrahydrobenzo[4,5]imidazo[1,2-a]pyrazine-2-carbonyl)imidazo[1,2-a]pyridin-3-yl)benzonitrile], the 50% inhibitory concentration (IC50) was 8090 nM on SIK3 and 597 nM at Recombinant SIK2. The “RANKL Fold Induction” value in the data set with RANKL came out at 1.25 fold. Moreover, in the data set with CRTC2 (TORC2), the “CRTC2 Efficacy (% of forskolin)” value is 3.4 % of forskolin.
Turning to `CN(Cc1nc2ccccc2n1C)C(=O)c1ccn2c(-c3ccc(C#N)cc3)cnc2c1` [Example 29, 3-(4-Cyanophenyl)-N-methyl-N-[(1-methylbenzimidazol-2-yl)methyl]imidazo[1,2-a]pyridine-7-carboxamide], the IC50 against SIK3 amounted to 8340 nM; at Recombinant SIK2 it was 608 nM. In addition, the “RANKL Fold Induction” value in the data set with RANKL stood at 1.48 fold. Also, the “CRTC2 Efficacy (% of forskolin)” value in the data set on CRTC2 (TORC2) was 2.8 % of forskolin.
Take `CC1(COc2ccn3c(-c4ccc(C#N)cc4)cnc3c2)COC1` [Example 38, 4-[7-[(3-Methyloxetan-3-yl)methoxy]imidazo[1,2-a]pyridin-3-yl]benzonitrile]: in the data set with RANKL, the “RANKL Fold Induction” value was determined as 0.37 fold. Besides, in the data set on CRTC2 (TORC2), the “CRTC2 Efficacy (% of forskolin)” value was 10.1 % of forskolin. Besides, at Recombinant SIK2, the IC50 is 211 nM.
Consider `CCc1nnc(-c2c(OC)cc(-c3cnc4cc(OCC5(C)COC5)ccn34)cc2OC)o1` [Example 39, 2-(2,6-dimethoxy-4-(7-((3-methyloxetan-3-yl)methoxy)imidazo[1,2-a]pyridin-3-yl)phenyl)-5-ethyl-1,3,4-oxadiazole], for which the IC50 against SIK3 was 83.6 nM; on SIK1, 2680 nM; on Recombinant SIK2 it was 136 nM.
As for `Cc1ccc(CCOc2ccn3c(-c4ccc(C#N)cc4)cnc3c2)cn1` [Example 41, 4-[7-[2-(6-Methyl-3-pyridyl)ethoxy]imidazo[1,2-a]pyridin-3-yl]benzonitrile], the results for the 50% inhibitory concentration (IC50) against SIK3 and at SIK1 were 12.6 nM and 233 nM, respectively. Also, the “RANKL Fold Induction” value in the data set with RANKL is 2.61 fold. The “CRTC2 Efficacy (% of forskolin)” value with CRTC2 (TORC2) is on record as 44.2 % of forskolin.
Turning to `CCc1nnc(-c2c(OC)cc(-c3cnc4cc(OCc5ccc(C)nc5)ccn34)cc2OC)o1` [Example 42, 2-[2,6-Dimethoxy-4-[7-[(6-methyl-3-pyridyl)methoxy]imidazo[1,2-a]pyridin-3-yl]phenyl]-5-ethyl-1,3,4-oxadiazole], the IC50 on SIK3 stood at 47 nM; against SIK1, 1180 nM; at Recombinant SIK2, 37 nM.
For the compound `CCn1cc(-c2ccn3c(-c4ccc(C#N)cc4)cnc3c2)cn1` [Example 45, 4-[7-(1-Ethylpyrazol-4-yl)imidazo[1,2-a]pyridin-3-yl]benzonitrile], the “RANKL Fold Induction” value in the data set with RANKL was found to be 9.41 fold. Moreover, the “CRTC2 Efficacy (% of forskolin)” value with CRTC2 (TORC2) was 85 % of forskolin.
As for `CCn1cc(-c2ccn3c(-c4ccc(C#N)c(C)c4)cnc3c2)cn1` [Example 47, 4-(7-(1-ethyl-1H-pyrazol-4-yl)imidazo[1,2-a]pyridin-3-yl)-2-methylbenzonitrile], the half-maximal inhibitory concentration (IC50) against SIK3 was 4.16 nM; against SIK1, 8.34 nM; on Recombinant SIK2 it was 0.855 nM. In addition, the “RANKL Fold Induction” value in the data set with RANKL is 17.43 fold.
`CCc1nnc(-c2c(OC)cc(-c3cnn4cc(-c5cnn(C6CC6)c5)ccc34)cc2OC)o1` [Example 53, 2-(4-(6-(1-cyclopropyl-1H-pyrazol-4-yl)pyrazolo[1,5-a]pyridin-3-yl)-2,6-dimethoxyphenyl)-5-ethyl-1,3,4-oxadiazole]: the concentration for half-maximal inhibition (IC50) against SIK3 was 2.62 nM; at SIK1, 17.4 nM; at Recombinant SIK2, 1.77 nM.
For the compound `COc1cc(-c2cnc3cc(-c4cnn(C)c4)ccn23)cc(OC)c1-c1nnc(C2CC2)o1` [Example 60, 2-cyclopropyl-5-(2,6-dimethoxy-4-(7-(1-methyl-1H-pyrazol-4-yl)imidazo[1,2-a]pyridin-3-yl)phenyl)-1,3,4-oxadiazole], the IC50 on SIK3 was 1.64 nM; at SIK1 it was 4.45 nM; at Recombinant SIK2, 1.49 nM. Further, the “RANKL Fold Induction” value with RANKL is recorded as 307.25 fold.
For the compound `CCn1cc(-c2ccn3c(-c4ccc(-c5noc(C)n5)cc4)cnc3c2)cn1` [Example 62, 3-(4-(7-(1-Ethyl-1H-pyrazol-4-yl)imidazo[1,2-a]pyridin-3-yl)phenyl)-5-methyl-1,2,4-oxadiazole], the half-inhibitory concentration (IC50) at SIK3 came to 1090 nM; against SIK1, 1130 nM; at Recombinant SIK2, 253 nM. Besides, the “CRTC2 Efficacy (% of forskolin)” value with CRTC2 (TORC2) is recorded as 8.6 % of forskolin.
